Data published in the CATMoS acute toxicity set (Mansouri et al. 2021).

Assay: Nontoxic (NT; LD50>2,000mg/kg vs. all others)
Settings: rat; in vivo; po
Source text: (§1) […]The data set underlying the modeling effort for this project was initially compiled by NICEATM and U.S. EPA’s CCTE. Briefly, LD50 data were collected from rat acute oral systemic toxicity tests, including limit tests, ranges/confidence intervals, and discrete LD50 values. The full data set included 21,200 LD50 entries for 15,688 substances. […] Data were reviewed to ensure that LD50 values with obvious errors in the extracted data such as unit conversion errors (e.g., comma and decimal separator misplacements) were either fixed or removed. After this review, 16,209 LD50 values remained. Many of the chemicals represented had multiple LD50 entries, requiring that a single representative value per Chemical Abstracts Service Registry Number (CASRN) identifier be defined to facilitate modeling efforts. Based on ATWG feedback and to define the representative LD50 as a protective value while accounting for the distribution across multiple LD50s, the median of the lowest quartile was computed using only discrete LD50 values (omitting limit test data and range and confidence interval data). A detailed summary of the data compilation is available online on the NICEATM webpage dedicated to the collaborative modeling project (NTP 2020).
(§2) […][…] For categorical designations, limit test and range/confidence interval LD50 data were integrated wherever possible. As such, the number of chemicals with end point values/calls varies across the modeling end points (Table 3) based on whether chemicals had representative LD50 values and/or other data. If a chemical had both, the representative value was used to determine categorical calls rather than limit test data. Some data were useable only for certain end points and categories depending on the thresholds. For example, ranges that spanned multiple hazard categories were considered only for the binary (very toxic/nontoxic) end points and omitted from rendering a determination for hazard category assignment.
(§3) […]The final data set comprising 11,992 chemicals was split into training and evaluation sets […], respectively. This process was performed semirandomly by ordering chemicals based on the five end points (categorical and continuous LD50 values) and partitioning every fourth record into the evaluation set accordingly. This approach was taken to ensure an equivalent distribution of the LD50 values and the different hazard categories between the training and the evaluation sets without supervised sampling of the chemicals based on structures (Figure 1A). The sources of the chemical structures were also kept equivalent between the two sets, with chemical structures obtained from DSSTox, being the highest quality, representing over 75% of each set (Figure 1B).

Compound | nontoxic
C1CCC2=NCCCN2CC1 | FALSE (not_nontoxic)
COc1c(C)cnc(CCl)c1C | FALSE (not_nontoxic)
CC1(C(=O)Cl)CCCCC1 | FALSE (not_nontoxic)
Cc1ccc(C(C)(C)C)c(O)c1 | FALSE (not_nontoxic)
O=C1c2ccccc2C(=O)N1[C@@H]1CCCNC1 | FALSE (not_nontoxic)
CC12CC(N3CCOCC3)C(O)CC1CCC1C2CCC2(C)C(O)C(N3CCCC3)CC12 (stereo unspecified) | FALSE (not_nontoxic)
CCCCCCCC[N+](C)(CCCCCCCC)CCCCCCCC | FALSE (not_nontoxic)
CC(C)OC(=O)NP(N)(N)=O | FALSE (not_nontoxic)
CO[Si](C)(CN=C=O)OC | FALSE (not_nontoxic)
O=CC1=C(Cl)C(=CO)CCC1 | FALSE (not_nontoxic)
Cc1cc(C)c(O)c(C(C)(C)C)c1 | FALSE (not_nontoxic)
CCC(C)c1cccc(C(C)CC)c1O (stereo unspecified) | FALSE (not_nontoxic)
C=CCOC(=O)C(C)(C)O | FALSE (not_nontoxic)
CCOC(=O)C(C#N)=CN | FALSE (not_nontoxic)
CO[Si](C)(CCCCl)OC | FALSE (not_nontoxic)
CCCCCCCCCCCCCCCC[Si](Cl)(Cl)Cl | FALSE (not_nontoxic)
CN(C)C=CC(=O)c1cccnc1 | FALSE (not_nontoxic)
C[Si](Cl)(Cl)CCCCl | FALSE (not_nontoxic)
CN(C)CCOCCOC(=O)NCC1(C)CC(NC(=O)OCCOCCN(C)C)CC(C)(C)C1 (stereo unspecified) | FALSE (not_nontoxic)
CC(CC(C)(C)C)C[Si](Cl)(Cl)Cl (stereo unspecified) | FALSE (not_nontoxic)
CN(C(=O)CCl)c1ccc([N+](=O)[O-])cc1 | FALSE (not_nontoxic)
CCC[Si](Cl)(Cl)Cl | FALSE (not_nontoxic)
COC1CCCC1 | FALSE (not_nontoxic)

Assay: rat acute oral toxicity
Settings: in vivo

Compound | LD50
Cc1ccc(S(=O)(=O)O)cc1 | 400 mg/kg
NCCNCCNCCNCCN | 2100 mg/kg
CC(=O)O | 1940 mg/kg
NC(N)=O | 8470 mg/kg
Oc1ccccc1 | 317 mg/kg
c1ccc2[nH]nnc2c1 | 500 mg/kg
Nc1ccc(S(=O)(=O)O)cc1 | 12300 mg/kg
OCC(O)CO | 9080 mg/kg
C=CN1CCCC1=O | 1020 mg/kg
O=C1CCCCCN1 | 1200 mg/kg
CC1OC(=O)C(C)OC1=O (stereo unspecified) | 3540 mg/kg
CCCCCCCC/C=C\CCCCCCCC(=O)O | 25000 mg/kg
O=S(=O)(O)c1cc(Nc2nc(Nc3ccccc3)nc(N(CCO)CCO)n2)ccc1/C=C/c1ccc(Nc2nc(Nc3ccccc3)nc(N(CCO)CCO)n2)cc1S(=O)(=O)O | 12100 mg/kg
N[C@@H](CCC(=O)O)C(=O)O | 15800 mg/kg
Nc1nc(N)nc(N)n1 | 3160 mg/kg
CCN(CC)CC | 460 mg/kg
CCCCCCCC/C=C\CCCCCCCCNCCCN | 500 mg/kg
COC(=O)/C=C\C(=O)OC | 1410 mg/kg
Clc1ccc(C(Cl)(Cl)Cl)cc1Cl | 1420 mg/kg
CCC1CO1 (stereo unspecified) | 500 mg/kg
CC(C)(C)c1ccc(CCOc2ncnc3ccccc23)cc1 | 134 mg/kg
OCCCCCCO | 3000 mg/kg
CCCCOC(=O)c1ccccc1 | 735 mg/kg
CCCCCCCCCCCCCCCCCCOCCO | 1900 mg/kg

Compound | LD50
CN1CCC[C@H]1c1cccnc1 | 51.2 mg/kg
O=[N+]([O-])c1ccc(Cl)cc1 | 460 mg/kg
CC1(C)C(=O)N(Br)C(=O)N1Cl | 485 mg/kg
CCOC=O | 1850 mg/kg
CNC(=O)Oc1ccccc1OC(C)C | 41 mg/kg
CCCCOC(=O)CCCCCCCCC(=O)OCCCC | 14900 mg/kg
CC1(C)C(C=C(Br)Br)C1C(=O)OC(C#N)c1cccc(Oc2ccccc2)c1 (stereo unspecified) | 40.5 mg/kg
CC(C)=CCC/C(C)=C/CO | 3600 mg/kg
CO[C@H]1/C=C/O[C@@]2(C)Oc3c(C)c(O)c4c(O)c(c(/C=N/N5CCN(C)CC5)c(O)c4c3C2=O)NC(=O)/C(C)=C\C=C\[C@H](C)[C@H](O)[C@@H](C)[C@@H](O)[C@@H](C)[C@H](OC(C)=O)[C@@H]1C | 900 mg/kg
O=C1O[B-]2(OC1=O)OC(=O)C(=O)O2 | 175 mg/kg
N#CN | 134 mg/kg
Oc1ccc(Cl)cc1Cl | 47 mg/kg
Nc1ccc(Cl)cc1 | 300 mg/kg
O=C(O)C1(C(=O)Nc2ccc(Cl)cc2Cl)CC1 | 208 mg/kg
CCCCCC1CCC(=O)O1 (stereo unspecified) | 6600 mg/kg
CC(C)O | 4710 mg/kg
CC[Si](Cl)(Cl)Cl | 800 mg/kg
C/C=C\CC1=C(C)[C@@H](OC(=O)[C@@H]2[C@@H](/C=C(\C)C(=O)OC)C2(C)C)CC1=O | 1030 mg/kg
Nc1ccc([N+](=O)[O-])cc1 | 750 mg/kg
C#CC(C)(C)NC(=O)c1cc(Cl)cc(Cl)c1 | 3350 mg/kg
CCCCC(C=O)CC (stereo unspecified) | 2600 mg/kg
CNC(=O)Oc1cccc2c1OC(C)(C)C2 | 5.15 mg/kg
C=CC(=O)Nc1ccccc1 | 300 mg/kg
Cc1ccccc1C | 3520 mg/kg

Compound | LD50
CC1CCCCN1CCCOC(=O)c1ccc(Cl)c(Cl)c1 (stereo unspecified) | 800 mg/kg
CCNC(=O)CSP(=S)(OC)OC | 125 mg/kg
C=C(C)C(N)=O | 1650 mg/kg
CCCCCO | 2200 mg/kg
OC(c1ccc(Cl)cc1)(c1ccc(Cl)cc1)C(Cl)(Cl)Cl | 575 mg/kg
C=C(C)C(=O)OCCN(C)C | 455 mg/kg
CSCCC=O | 490 mg/kg
OCCOCCOc1ccccc1 | 2140 mg/kg
CCCCC(C#N)(Cn1cncn1)c1ccc(Cl)cc1 (stereo unspecified) | 1600 mg/kg
OCCCl | 58 mg/kg
CC(C)CCCCCCCO | 6400 mg/kg
CC(Cc1ccc(C(C)(C)C)cc1)CN1CC(C)OC(C)C1 (stereo unspecified) | 1670 mg/kg
C#CCOC(=O)[C@@H](C)Oc1ccc(Oc2ncc(Cl)cc2F)cc1 | 2230 mg/kg
CSc1ccc(C(=O)C(C)(C)N2CCOCC2)cc1 | 1460 mg/kg
COC(=O)c1ccccc1 | 1180 mg/kg
CC(=O)c1ccccc1 | 858 mg/kg
CON(C)C(=O)Nc1ccc(Cl)c(Cl)c1 | 1150 mg/kg
CCCCCCC(CO)CCCC (stereo unspecified) | 13000 mg/kg
Cc1ccc(C)cc1 | 3520 mg/kg
ClCC(Cl)Cl | 836 mg/kg
CCCCC(CC)(CO)CO | 2800 mg/kg
C=CC(=O)OCC1CO1 (stereo unspecified) | 150 mg/kg
CCC[C@@H]1C[C@@H](C(=O)N[C@@H]([C@H]2O[C@H](SC)[C@H](O)[C@@H](O)[C@H]2O)[C@@H](C)O)N(C)C1 | 1000 mg/kg
CCNS(=O)(=O)C(F)(F)C(F)(F)C(F)(F)C(F)(F)C(F)(F)C(F)(F)C(F)(F)C(F)(F)F | 507 mg/kg

Assay: Very toxic (VT; LD50≤50mg/kg vs. all others)
Settings: rat; in vivo; po
Source text: as §1, §2, §3

Compound | very_toxic
O=C1NC(=O)C2CCCC12 (stereo unspecified) | FALSE (not_very_toxic)
Nc1ccc(N)c2c1C(=O)c1c(N)ccc(N)c1C2=O | FALSE (not_very_toxic)
CCCCCCCCCCCCCCCCCCOP1OCC2(CO1)COP(OCCCCCCCCCCCCCCCCCC)OC2 (stereo unspecified) | FALSE (not_very_toxic)
COCCOCCOCCOB(OCCOCCOCCOC)OCCOCCOCCOC | FALSE (not_very_toxic)
CSc1c(C)cc(O)cc1C | FALSE (not_very_toxic)
CCCCCCCCCCCCCC[N+](C)(C)[O-] | FALSE (not_very_toxic)
CNC1=C(c2cccc(C(F)(F)F)c2)C(=O)C(c2ccccc2)O1 (stereo unspecified) | FALSE (not_very_toxic)

Assay: EPA categories
Settings: rat; in vivo; po
Source text: as §1, §2, §3

Compound | EPA category
Cc1cccc(S(=O)(=O)O)c1C | 3
Cc1cncc(C)c1 | 2
O=[N+]([O-])c1cc(N(CCO)CCO)ccc1NCCO | 3
NC(N)=Nc1ccccc1 | 3
CCO[SiH](OCC)OCC | 3
CC(Cl)(Cl)CC(Cl)(Cl)Cl | 2
O=C1c2cccc(Sc3ccccc3)c2C(=O)c2c(Sc3ccccc3)cccc21 | 3

Assay: GHS categories as the set defines them, by LD50: 1 up to 5, 2 up to 50, 3 up to 300, 4 up to 2000, 5 above 2000 mg/kg
Settings: rat; in vivo; po

Compound | GHS category
Cc1ccc(S(=O)(=O)O)cc1 | 5
NCCNCCNCCNCCN | 4
CC(=O)O | 5
NC(N)=O | 5
Oc1ccccc1 | 5
c1ccc2[nH]nnc2c1 | 4
Nc1ccc(S(=O)(=O)O)cc1 | 5
OCC(O)CO | 5
C=CN1CCCC1=O | 5
O=C1CCCCCN1 | 4
CC1OC(=O)C(C)OC1=O (stereo unspecified) | 5
CCCCCCCC/C=C\CCCCCCCC(=O)O | 5
O=S(=O)(O)c1cc(Nc2nc(Nc3ccccc3)nc(N(CCO)CCO)n2)ccc1/C=C/c1ccc(Nc2nc(Nc3ccccc3)nc(N(CCO)CCO)n2)cc1S(=O)(=O)O | 5
N[C@@H](CCC(=O)O)C(=O)O | 5
Nc1nc(N)nc(N)n1 | 5
CCN(CC)CC | 5
CCC[C@@H]1C[C@@H](C(=O)N[C@@H]([C@H]2O[C@H](SC)[C@H](O)[C@@H](O)[C@H]2O)[C@@H](C)O)N(C)C1 | 5
